How the values were obtained:
[1] = tested on: metastatic castration-resistant prostate cancer (mCRPC); test: COU-AA-302 Phase 3 study: Cox regression association of tumor mRNA biomarker expression with rPFS/OS within the AA group; format: in vivo, human
From the text: (§1) COU-AA-302 is a Phase 3, multinational, randomized, double-blind, placebo-controlled study comparing the efficacy and safety of AA and prednisone (AA+P) to placebo and prednisone (Placebo+P) in medically or surgically castrated asymptomatic or mildly symptomatic men with mCRPC who have not received cytotoxic chemotherapy. Patients were assigned in a 1:1 ratio to receive either AA+P or Placebo+P and were stratified based on ECOG performance status of 0 or 1, as discussed in Clinical Study Protocol: A Phase 3 Randomized, Double-blind, Placebo-controlled Study of Abiraterone Acetate (CB7630) Plus Prednisone in Asymptomatic or Mildly Symptomatic Subjects with Metastatic Castration Resistant Prostate Cancer. Protocol COU-AA-302; EudraCT No. 2008-008004-41; 9 Jul. 2012.
(§2) All subjects in Study COU-AA-302, regardless of treatment group, received concurrent prednisone. See Clinical Study Report: CSR COU-AA-302 2012. A Phase 3, Randomized, Double-Blind, Placebo-Controlled Study of Abiraterone Acetate Plus Prednisone in Asymptomatic or Mildly Symptomatic Subjects With Metastatic Castration-Resistant Prostate Cancer. Issue Date: 26 Oct. 2012. Subjects who received AA+P are referred to herein as the “AA group” and in tables as “AA.” Subjects who received Placebo+P are referred to herein as the “Placebo group” and in tables as “Placebo.” Additional study related details can be obtained from the COU-AA-302 clinical study protocol or clinical study report.
Formalin fixed paraffin embedded (FFPE) tumor samples from 258 subjects who optionally consented for RNA analysis were collected and shipped to the central laboratory (Covance, Ind.) for RNA analysis. FFPE samples from 152 subjects had sufficient RNA for TaqMan® Low Density Array (TLDA) analysis. Samples from the other 106 subjects were excluded either due to lack of tumor or low RNA yield. Of the 152 samples evaluated by TLDA, samples from 42 subjects were excluded from data analysis due to technical failures (no detectable gene expression or batch effects induced by microdissection of samples with low tumor content or low RNA input mass [<250 ng of total RNA]). The remaining evaluable samples from 110 subjects (Biomarker population) who were part of the ITT population (10%) and who had drug exposure with clinical data for at least one of the efficacy endpoints (rPFS, OS) were included in the analysis. Samples from these subjects were included in the mRNA analysis using the TaqMan® array microfluidic cards.
Raw CT values were filtered to remove values greater than 30. Quadruple replicate CT values were summarized using the geometric mean. Expression values were calculated using the comparative CT method as described in Schmittgen T D, Livak K J. Analyzing real-time PCR data by the comparative Ct method. Nature Protocols. 2008; 3:1101-1108. Briefly, a normalization factor was calculated for each sample using the geometric mean of housekeeping genes (ACTB and GAPDH). Relative expression values of all other transcripts were quantified as the difference between CT and the normalization factor. Transcript expression was calculated by the negation of the relative expression values to account for the inverse relationship between expression and CT. This is equivalent to the log 2 transform of 2^(-DeltaCT).
All statistical tests were interpreted at 5% significance levels (two-sided). For determination of specificity of biomarker association with clinical endpoints in AA group, a P<0.05 in the AA group and a P≥0.2 in the placebo group is required. Demographics and baseline characteristics were compared between the biomarker population and the ITT population using ANOVA (continuous variables) or Chi-Square (categorical variables) tests. […]

[2] = tested on: metastatic castration-resistant prostate cancer (mCRPC); test: COU-AA-302: multivariate biomarker panel classifier (low/high risk) versus radiographic progression free survival, independent test set; format: in vivo, human; settings: test set (AA group), multivariate panel cutpoint 0.9977
From the text: as §1, §2
A multivariate biomarker panel was identified using penalized regression to define a classifier that predicts radiographic progression free survival. The model was defined using an elastic net approach for feature selection and model specification. Data was separated into training and testing sets using a 70%-30% split. Within the training data, 10-fold cross-validation was used to define model parameters. Elastic net models have two parameters: alpha and lambda. Alpha is the elastic net penalty and determines the specific mixture of penalties that will be applied to limit complexity of the model. Lambda is the regularization penalty which determines the magnitude of the parameter used to limit complexity. After optimizing alpha and lambda using cross-validation, the values were used to define the cox regression model on the training data. The model is used to predict the relative risk of progression free-survival for all subjects in the training set. Then, time-dependent ROC analysis was used to determine the predictive power of the model and dichotomize the relative risk into two groups associated with low and high risk at the timepoint at which 90% of subjects with radiographic progression had observed recurrence of disease (t=20.48 months). This model, consisting of regression coefficients, timepoint and cutoff to discriminate between low and high risk, was applied to predict the relative risk of subjects in the independent test data and evaluate the predictive power and association with time to event of the classifier. This evaluation is repeated on the placebo data to confirm that the classifier is predictive of response to Abiraterone and not prognostic of outcome independent of treatment. Features used in the model building process included all single gene markers detected in greater than 50% of samples to exclude low expressing genes. The model was optimized to alpha=0.5 and lambda=0.209. Using these parameters, the optimized survival models were defined as described in Table 6.
Table 7 lists the predictive metrics which describe the performance of these models on the independent test and placebo group data.
Table 8 lists the statistics describing the association between classifier predictions and time to radiographic progression free survival.

[3] = AA group (AA+prednisone), Cox regression with baseline ECOG, continuous log2 expression, (95% CI)
[4] = AA group, Cox regression with baseline ECOG, (95% CI)
[5] = AA group, multivariate Cox regression model

## CC(=O)O[C@H]1CC[C@@]2(C)C(=CC[C@@H]3[C@@H]2CC[C@]2(C)C(c4cccnc4)=CC[C@@H]32)C1 [AA, abiraterone acetate]
[1]; [3]
  HR, association of ANLN expression with rPFS (IND): 0.84 (0.72, 0.96)
  HR, association of ANLN expression with rPFS (INV): 0.80 (0.69, 0.93)
[1]; AA group, 1-0.84, unit = 2-fold difference relative to reference gene
  reduction of the hazard of rPFS event per unit increase in relative expression of ANLN: 16%
[1]; AA group, Cox regression
  HR, association of CYP17A1 and cofactors group composite score with OS: 0.20
  HR, association of androgen controlled group composite score with OS: 0.31
  HR, association of proliferation pathway module with rPFS (INV): 0.63
[1]; [4]
  HR, association of CYP17A1 and cofactors group composite score with rPFS (INV): 0.71 (0.37, 1.36)
  HR, association of HSD17B10 expression with rPFS (IND): 0.78 (0.62, 0.98)
  HR, association of HSD17B10 expression with rPFS (INV): 0.76 (0.62, 0.94)
  HR, association of NUSAP1 expression with rPFS (IND): 0.82 (0.67, 1.00)
  HR, association of NUSAP1 expression with rPFS (INV): 0.78 (0.64, 0.95)
  HR, association of SRD5A1 expression with rPFS (IND): 0.80 (0.65, 0.98)
  HR, association of SRD5A1 expression with rPFS (INV): 0.83 (0.68, 1.00)
  HR, association of UBE2C expression with rPFS (IND): 0.85 (0.74, 0.98)
  HR, association of UBE2C expression with rPFS (INV): 0.81 (0.71, 0.93)
[1]; [5]
  HR, association of ANLN expression with rPFS (IND), corrected for RNA extraction methodology: 0.86
  HR, association of HSD17B10 expression with rPFS (IND), corrected for RNA extraction methodology: 0.78
  HR, association of NUSAP1 expression with rPFS (IND), corrected for RNA extraction methodology: 0.78
  HR, association of SRD5A1 expression with rPFS (IND), corrected for RNA extraction methodology: 0.79
[1]; AA group, multivariate Cox regression model, trend of association
  HR, association of UBE2C expression with rPFS (IND), corrected for RNA extraction methodology: 0.88
[2]; 95CI in next cell
  HR, High versus Low risk, time to radiographic progression free survival: 6.25
  Median time to radiographic progression free survival, High risk: 8.2
[2]; percentage of events
  Event/Total (Perc), rPFS, High risk: (100.0)
  Event/Total (Perc), rPFS, Low risk: (40.0)
[2]; timepoint 20.4813
  Event/Total, rPFS, High risk: 4/4
  Event/Total, rPFS, Low risk: 6/15

From patent US11180809B2, “Biological markers for identifying patients for treatment with abiraterone acetate” (JANSSEN PHARMACEUTICA NV, priority 2014, dated 2021)
